Laboratory results from US9623063B2, “Extracts from Ajuga reptans cell lines, their preparation and use” (I.R.B. ISTITUTO DI RICERCHE BIOTECNOLOGICHE S.r.l., priority 2005, dated 2017).

Key:
tyrosinase [1] = experiment: Tyrosinase inhibition, oxidation of L-tyrosine to L-DOPA; format: biochemical; conditions: 250 μg/ml
Text: (§1) The enzyme tyrosinase catalyses the reactions leading to melanin biosynthesis from tyrosine. […] Substances inhibiting tyrosinase activity produce a clearing/bleaching effect on the skin, since they block melanin synthesis. The method used to determine the inhibition of tyrosinase activity in the oxidation reaction of L-tyrosine to L-DOPA is that described in Kim et al. […] Biol. Pharm. […] The method applied for determination of the inhibition of tyrosinase activity in the conversion of L-DOPA to DOPAquinone is that described in Masamoto et al. (Mushroom tyrosinase inhibitory activity of esculetin isolated from seeds of Euphorbia lathyris L. Biosci. Biotechnol. Biochem., 67(3), 631-634, 2003).

tyrosinase [2] = experiment: Tyrosinase inhibition, conversion of L-DOPA to DOPAquinone; format: biochemical; conditions: 100 μg/ml
Text: as §1

A549 cells (ATCC-CCL185) = experiment: BSO-induced oxidative stress, ROS by DCF fluorimetry in A549 cells; format: cell-based, human; conditions: with BSO, control without BSO = 100
Procedure: 10×10^5 A549 cells (ATCC-CCL185) have been seeded into wells with 3 ml of DMEM/F12K HAM medium (Sigma-Aldrich) with 10% FCS and incubated at 37° C. in a 5% CO2, water vapour saturated atmosphere. After 24 hours the culture medium is replaced by medium supplemented with BSO, which is left in contact with the cells for 20 hours. The medium is once again replaced with medium containing BSO in the presence or absence of the test compound. After 4 hours, quantitative measurement of the ROSs (hydroxyl radicals) is performed by washing the cells with phosphate buffer and then incubating them with 30 μM DCF-DA in buffer solution. At the end of a 15 minute incubation, excess DCF-DA is removed from the cells by washing, prior to measuring the fluorescence emitted.
Antioxidant activity measurements are performed using a (Hitachi F3010) spectrophotometer with excitation at 488 nm and measuring emission at 525 nm, and values are expressed in pmoles, by extrapolation from the calibration curve constructed using known quantities of DCF, and in relation to total cellular protein. Values are thus expressed in % ages with respect to the ROS content of the cells not subjected to treatment with BSO (control) to which are assigned a value of 100.
The Extracts 1 and 2, Teupolioside and Ascorbic Acid were solubilized in phosphate buffer 10 mM at pH 7.4, whereas trolox was solubilized in 0.1% of dimethylsulphoxide and culture medium.

[3] = Peroxynitrite scavenging (SIN-1, PTIO spin trap, ESR); format: biochemical; conditions: means of 6 independent assays
Text: (§2) The superoxide anion has been measured by a chemiluminescent assay based on the hypoxanthine (HPX)/xanthine oxidase (XOD) reaction using the Lumimax Superoxide Anion Detection Kit (Stratagene, La Jolla, Calif., USA) and following the manufacturer's instructions. Hydroxyl radical scavenger activity has been measured by means of the Fenton reaction for the production of hydroxyl radicals and chemiluminescent dosage (using a Victor^3 chemiluminometer, Wallac, Finland) with luminol. Peroxynitrite ions have been determined by means of dosage with a spontaneous generator of peroxynitrites (3-morpholinosidnonimine hydrochloride; SIN-1) and a stable reagent for the nitroxyl ions (2-(4-carboxyphenyl)-4,4,5,5-tetramethylimidazoline-1-oxyl-3-oxide potassium salt PTIO spin trap) then dosed by means of electron spin resonance (ESR) using a Nippon Denshi JES-FR30. Lipid peroxidation has been generated using Fe^2+ induced-oxygen reactive species, and detected using thiobarbituric acid in accordance with Buege, J A & Aust, S D: Microsomal lipid peroxidation (Methods Enzymol.
(§3) The results are expressed as the concentration inhibiting 50% of activity (IC50), means of 6 independent assays.

[4] = Hydroxyl radical scavenger activity (Fenton reaction, luminol chemiluminescence); format: biochemical; conditions: means of 6 independent assays
Text: as §2, with “Ajuga reptans Extracts 1 and 2, prepared as described in examples 1 and 2, and isoteupolioside have been used to assess in vitro antioxidant action with specific oxygen radical generating systems such as the superoxide anion (O2^−), the hydroxyl radical (HO^−), the peroxynitrite radical (ONOO^−) and the inhibition of lipid peroxidation. The” for “The”
The Extract 1 and the Extract 2 set forth in Table 4 are derived from Ajuga reptans cell cultures comprising the phenylpropanoids at 90% and 54%, respectively. The results are expressed as the concentration inhibiting 50% of activity (IC50), means of 6 independent assays.

[5] = Superoxide anion chemiluminescent assay (hypoxanthine/xanthine oxidase, Lumimax kit); format: biochemical; conditions: means of 6 independent assays
Text: as §2, §3

3T3 fibroblasts = experiment: BSO-induced oxidative death of 3T3 fibroblasts (MTT); format: cell-based, BALB/c mouse; conditions: 1 mM; BSO 200 μM, 24 hours

O=c1cc(CO)occ1O [Kojic acid, reference compound]
Test L-tyrosine-DOPA inhibitory activity (%) (tyrosinase [1]): 94.1% | Test LDOPA-DOPAquinone inhibitory activity (%) (tyrosinase [2]): 35%

Cc1c(C)c2c(c(C)c1O)CCC(C)(C(=O)O)O2 (stereo not shown) [Trolox]
% ROS in picomoles (A549 cells (ATCC-CCL185); 20 μM): 125 ± 8 %

Oc1cccc(O)c1 [Resorcinol, reference compound]
Test L-tyrosine-DOPA inhibitory activity (%) (tyrosinase [1]): 56.9% | Test LDOPA-DOPAquinone inhibitory activity (%) (tyrosinase [2]): 0%

O=C1c2c(O)cccc2C([C@@H]2O[C@H](CO)[C@@H](O)[C@H](O)[C@H]2O)c2cc(CO)cc(O)c21 (stereo partly shown) [Aloin, reference compound]
Peroxynitrite radical (IC50) [3]: 12.3 µg/mL | Hydroxyl radial (IC50) [4]: 2.9 µg/mL | Superoxide radical (IC50) [5]: 7.6 µg/mL

O=C1O[C@H]([C@@H](O)CO)C(O)=C1O [Ascorbic acid, reference compound]
% ROS in picomoles (A549 cells (ATCC-CCL185); 1 mM): 130 ± 10 % | % survived cells (3T3 fibroblasts): 72.3%
